Values quoted from earlier work in patent US20090118340A1, “Method for inhibiting and/or preventing formation of cancer metastases and seconddary malignant cancers” (priority 2007, published 2009).

System: murine leukemia L1210
Settings: for cytotoxicity in cultured leukemia cells: Pharmacological Reports, 2007, 59, 216-223

Row | SMILES | cytotoxicity in cultured leukemia cells | cytotoxicity, factor lower than 3-nitro-1-methylpyridinium chloride (observed only at very high concentration)
1 | C[n+]1cccc([N+](=O)[O-])c1.[Cl-] [3-nitro-1-methylpyridinium chloride, reference compound] | highest cytotoxicity | –
2 | C[n+]1cccc(C(N)=O)c1 [MNA, 1-methylnicotinamide] | negligible | about 7000
